From patent publication US7960391B2, “Heterocyclylethylbenzamide derivatives” (Bayer Cropscience AG, priority 2005, dated 2011)

How the values were obtained:
Botrytis cinerea = assay: Effectiveness on Botrytis cinerea; assay type: in vivo; settings: 330 ppm; comparison compounds of WO 01/11965
Alternaria brassicae = assay: In vivo test on Alternaria brassicae (leaf spot of crucifers); settings: for effectiveness on Alternaria brassicae: 330 ppm, comparison compounds of WO 01/11965
Protocol: In Vivo Test on Alternaria brassicae (Leaf Spot of Crucifers)
The active ingredient tested is prepared by potter homogenisation in a concentrated suspension type formulation at 100 g/l. This suspension is then diluted with water to obtain the desired active material concentration.
Radish plants (Pernot variety) in starter cups, sown on a 50/50 peat soil-pozzolana substrate and grown at 18-20° C., are treated at the cotyledon stage by spraying with the aqueous suspension described above.
Plants, used as controls, are treated with an aqueous solution not containing the active material.
After 24 hours, the plants are contaminated by spraying them with an aqueous suspension of Alternaria brassicae spores (40,000 spores per cm^3). The spores are collected from a 12-13-day-old culture.
The contaminated radish plants are incubated for 6-7 days at about 18° C., under a humid atmosphere.
Grading is carried out 6 to 7 days after the contamination, in comparison with the control plants.

Peronospora parasitica = assay: Efficacy against Peronospora parasitica; assay type: in vivo; settings: 330 ppm; comparison compound of WO 01/11965

Compound	effectiveness on Botrytis cinerea (Botrytis cinerea)	effectiveness on Alternaria brassicae (Alternaria brassicae)	efficacy against Peronospora parasitica (Peronospora parasitica)	good (at least 50%) [protection] versus control plants (Alternaria brassicae; radish plants (Pernot variety), preventive spray 24 hours before contamination, dose 500 ppm, grading 6 to 7 days after contamination)
CCNC(=O)C(Cc1ncc(C(F)(F)F)cc1Cl)NC(=O)c1ccccc1Br (stereo not shown) [compound 310, N-{1-ethylcarbamoyl-2-[3-chloro-5-(trifluoromethyl)-2-pyridinyl]ethyl}-2-bromobenzamide]	zero effectiveness	–	–	–
CNC(=O)C(Cc1ncc(C(F)(F)F)cc1Cl)NC(=O)c1ccc(-c2ccccc2)cc1 (stereo not shown) [compound 316, N-{1-methylcarbamoyl-2-[3-chloro-5-(trifluoromethyl)-2-pyridinyl]-ethyl}-4-phenylbenzamide]	zero effectiveness	poor effectiveness	–	–
O=C(Cc1cccs1)NCc1ncc(C(F)(F)F)cc1Cl [compound 101, N-{[3-chloro-5-(trifluoromethyl)-2-pyridinyl]methyl}-5-thienylacetamide]	no efficacy	poor efficacy	no efficacy	–
CCNC(=O)C(Cc1ncc(C(F)(F)F)cc1Cl)NC(=O)c1cccc([N+](=O)[O-])c1 (stereo not shown) [compound 307, N-{1-ethylcarbamoyl-2-[3-chloro-5-(trifluoromethyl)-2-pyridinyl]ethyl}-3-nitrobenzamide]	zero effectiveness	poor effectiveness	–	–
CCNC(=O)C(Cc1ncc(C(F)(F)F)cc1Cl)NC(=O)c1ccccc1 (stereo not shown) [compound 304, N-{1-ethylcarbamoyl-2-[3-chloro-5-(trifluoromethyl)-2-pyridinyl]-ethyl}-benzamide]	zero effectiveness	–	–	–
O=C(NCCc1ncc(Br)cn1)c1ccccc1C(F)(F)F [Compound A-1, N-[2-(5-bromopyrimidin-2-yl)ethyl]-2-(trifluoromethyl)benzamide]	–	–	–	at least 50%
CNC(=O)C(Cc1ncc(C(F)(F)F)cc1Cl)NC(=O)c1ccccc1 (stereo not shown) [compound 314, N-{1-methylcarbamoyl-2-[3-chloro-5-(trifluoromethyl)-2-pyridinyl]ethyl}-benzamide]	zero effectiveness	–	–	–
CNC(=O)C(Cc1ncc(C(F)(F)F)cc1Cl)NC(=O)c1ccc(OC)cc1 (stereo not shown) [compound 315, N-{1-methylcarbamoyl-2-[3-chloro-5-(trifluoromethyl)-2-pyridinyl]ethyl}-4-methoxybenzamide]	zero effectiveness	–	–	–
CCNC(=O)C(Cc1ncc(C(F)(F)F)cc1Cl)NC(=O)c1ccc(Cl)cc1 (stereo not shown) [compound 306, N-{1-ethylcarbamoyl-2-[3-chloro-5-(trifluoromethyl)-2-pyridinyl]ethyl}-4-chlorobenzamide]	zero effectiveness	–	–	–
